Assay results from patent US20200016136A1 (VIIV HEALTHCARE UK (NO. 5) LIMITED, priority 2017, published 2020).

Test system: NL-RLuc virus (recombinant NL4-3 HIV with Renilla Luciferase gene)
Assay: Inhibition of HIV replication (NL-RLuc virus in MT-2 cells, luciferase readout)
Type: cell-based, Human immunodeficiency virus (HIV)
Settings: MT2, 120 h
Description: Inhibition of HIV Replication:
A recombinant NL-RLuc proviral clone was constructed in which a section of the nef gene form NL4-3 was replaced with the Renilla Luciferase gene. This virus is fully infectious and can undergo multiple cycles of replication in cell culture. In addition, the luciferous reporter provides a simple and easy method for quantitating the extent of virus growth and consequently, the antiviral activity of test compounds. The plasmid pNLRLuc contains the proviral NL-Rluc DNA cloned into pUC18 at the PvuII site. The NL-RLuc virus was prepared by transfection of 293T cells with the plasmid pNLRLuc. Transfections were performed using the LipofectAMINE PLUS kit form Invitrogen (Carlsbad, Calif.) according to the manufacturer and the virus generated was titered in MT-2 cells. For susceptibility analyses, the titrated virus was used to infect MT-2 cells in the presence of compound, and after 5 days of incubation, cells were processed and quantitated for virus growth by the amount of expressed luciferase. Assay media was RPMI 1640 supplemented with 10% heat inactivated fetal bovine serum (FBS), 100 units/ml penicillin G/100 units/ml streptomycin, 10 mM HEPES buffer pH 7.55 and 2 mM L-glutamine. The results form at least 2 experiments were used to calculate the EC50 values. Luciferase was quantitated using the Dual Luciferase kit form Promega (Madison, Wis.). Susceptibility of viruses to compounds was determined by incubation in the presence of serial dilutions of the compound. The 50% effective concentration (EC50) was calculated by using the exponential form of the median effect equation where (Fa)=1/[1+(ED50/drug conc.)^m](Johnson V A, Byington R T. Infectivity Assay. In Techniques in HIV Research. ed. Aldovini A, Walker B D. 71-76. New York: Stockton Press. 1990).

SMILES	EC50
Cc1cccc(Cl)c1CN1CCc2cc(-c3c(C(=O)N4CCC(C)(C)CC4)nc(C)c([C@H](OC(C)(C)C)C(=O)O)c3N3CCC(C)(C)CC3)ccc2C1 [Example 118, (S)-2-(tert-Butoxy)-2-(5-(2-(2-chloro-6-methylbenzyl)-1,2,3,4-tetrahydroisoquinolin-6-yl)-4-(4,4-dimethylpiperidin-1-yl)-6-(4,4-dimethylpiperidine-1-carbonyl)-2-methylpyridin-3-yl)acetic Acid]	1 nM
Cc1nc(C)c([C@H](OC(C)(C)C)C(=O)O)c(N2CCC(C)(C)CC2)c1-c1ccc2c(c1)CCN(c1cc(N3CCOCC3)cnn1)C2 [Example 55, (S)-2-(tert-Butoxy)-2-(4-(4,4-dimethylpiperidin-1-yl)-2,6-dimethyl-5-(2-(5-morpholinopyridazin-3-yl)-1,2,3,4-tetrahydroisoquinolin-6-yl)pyridin-3-yl)acetic Acid]	21 nM
Cc1nc(C)c([C@H](OC(C)(C)C)C(=O)O)c(N2CCC(C)(C)CC2)c1-c1ccc2c(c1)CCN(c1nccc(-c3cnccn3)n1)C2 [Example 108, (S)-2-(tert-Butoxy)-2-(4-(4,4-dimethylpiperidin-1-yl)-2,6-dimethyl-5-(2-(4-(pyrazin-2-yl)pyrimidin-2-yl)-1,2,3,4-tetrahydroisoquinolin-6-yl)pyridin-3-yl)acetic Acid]	2 nM
Cc1cc(F)ccc1CN1CCc2cc(-c3cnc(Cl)c([C@H](OC(C)(C)C)C(=O)O)c3N3CCC(C)(C)CC3)ccc2C1 [Example 113, (S)-2-(tert-Butoxy)-2-(2-chloro-4-(4,4-dimethylpiperidin-1-yl)-5-(2-(4-fluoro-2-methylbenzyl)-1,2,3,4-tetrahydroisoquinolin-6-yl)pyridin-3-yl)acetic Acid]	3 nM
CCOc1nc(N2CCOCC2)nc(N2CCc3cc(-c4c(C)nc(C)c([C@H](OC(C)(C)C)C(=O)O)c4N4CCC(C)(C)CC4)ccc3C2)n1 [Example 59, (S)-2-(tert-Butoxy)-2-(4-(4,4-dimethylpiperidin-1-yl)-5-(2-(4-ethoxy-6-morpholino-1,3,5-triazin-2-yl)-1,2,3,4-tetrahydroisoquinolin-6-yl)-2,6-dimethylpyridin-3-yl)acetic Acid]	3 nM
Cc1nc(C)c([C@H](OC(C)(C)C)C(=O)O)c(N2CCC(C)(C)CC2)c1-c1ccc2c(c1)CCN(c1nccc(N3CCCC3)n1)C2 [Example 21, (2S)-2-(tert-Butoxy)-2-[4-(4,4-dimethylpiperidin-1-yl)-2,6-dimethyl-5-{2-[4-(pyrrolidin-1-yl)pyrimidin-2-yl]-1,2,3,4-tetrahydroisoquinolin-6-yl}pyridin-3-yl]acetic Acid]	2 nM
Cc1nc(C)c([C@H](OC(C)(C)C)C(=O)O)c(N2CCC(C)(C)CC2)c1-c1ccc2c(c1)CCN(c1ccnc(N3CCN(CCO)CC3)n1)C2 [Example 85, (S)-2-(tert-Butoxy)-2-(4-(4,4-dimethylpiperidin-1-yl)-5-(2-(2-(4-(2-hydroxyethyl)piperazin-1-yl)pyrimidin-4-yl)-1,2,3,4-tetrahydroisoquinolin-6-yl)-2,6-dimethylpyridin-3-yl)acetic Acid]	39 nM
Cc1nc(C)c([C@H](OC(C)(C)C)C(=O)O)c(N2CCC(C)(C)CC2)c1-c1ccc2c(c1)CCN(c1nccc(N3CCC4(CCC4)CC3)n1)C2 [Example 25, (2S)-2-{5-[2-(4-{7-Azaspiro[3.5]nonan-7-yl}pyrimidin-2-yl)-1,2,3,4-tetrahydroisoquinolin-6-yl]-4-(4,4-dimethylpiperidin-1-yl)-2,6-dimethylpyridin-3-yl}-2-(tert-butoxy)acetic Acid]	5 nM
Cc1nc(C)c([C@H](OC(C)(C)C)C(=O)O)c(N2CCC(C)(C)CC2)c1-c1ccc2c(c1)CCN(c1cc(N3CCC(C)CC3)ncn1)C2 [Example 138, (S)-2-(tert-Butoxy)-2-(4-(4,4-dimethylpiperidin-1-yl)-2,6-dimethyl-5-(2-(6-(4-methylpiperidin-1-yl)pyrimidin-4-yl)-1,2,3,4-tetrahydroisoquinolin-6-yl)pyridin-3-yl)acetic Acid]	2 nM
Cc1nc(C)c([C@H](OC(C)(C)C)C(=O)O)c(N2CCC(C)(C)CC2)c1-c1ccc2c(c1)CCN(c1nccc(N3C4CCC3COC4)n1)C2 [Example 32, (2S)-2-(tert-Butoxy)-2-[4-(4,4-dimethylpiperidin-1-yl)-2,6-dimethyl-5-[2-(4-{3-oxa-8-azabicyclo[3.2.1]octan-8-yl}pyrimidin-2-yl)-1,2,3,4-tetrahydroisoquinolin-6-yl]pyridin-3-yl]acetic Acid]	1 nM
Cc1nc(NCCCN2CCCCC2)c(-c2ccc3c(c2)CCN(c2ncnc4c2oc2ccccc24)C3)c(N2CCC(C)(C)CC2)c1[C@H](OC(C)(C)C)C(=O)O [Example 15, (S)-2-(5-(2-(Benzofuro[3,2-d]pyrimidin-4-yl)-1,2,3,4-tetrahydroisoquinolin-6-yl)-4-(4,4-dimethylpiperidin-1-yl)-2-methyl-6-((3-(piperidin-1-yl)propyl)amino)pyridin-3-yl)-2-(tert-butoxy)acetic Acid]	2 nM
CCC(C)(C)O[C@H](C(=O)O)c1c(C)nc(C)c(-c2ccc3c(c2)CCN(Cc2ccccc2C)C3)c1N1CCC(C)(C)CC1 [Example 90, (S)-2-(4-(4,4-Dimethylpiperidin-1-yl)-2,6-dimethyl-5-(2-(2-methylbenzyl)-1,2,3,4-tetrahydroisoquinolin-6-yl)pyridin-3-yl)-2-(tert-pentyloxy)acetic Acid]	4 nM
Cc1nc(C)c([C@H](OC(C)(C)C)C(=O)O)c(N2CCC(C)(C)CC2)c1-c1ccc2c(c1)CCN(c1cc(N3CCC(N4CCOCC4)CC3)ncn1)C2 [Example 134, (S)-2-(tert-Butoxy)-2-(4-(4,4-dimethylpiperidin-1-yl)-2,6-dimethyl-5-(2-(6-(4-morpholinopiperidin-1-yl)pyrimidin-4-yl)-1,2,3,4-tetrahydroisoquinolin-6-yl)pyridin-3-yl)acetic Acid]	4 nM
Cc1ncc(-c2ccc3c(c2)CCN(c2ncnc4c2oc2ncccc24)C3)c(N2CCC(C)(C)CC2)c1[C@H](OC(C)(C)C)C(=O)O [Example 48, (2S)-2-(tert-Butoxy)-2-[4-(4,4-dimethylpiperidin-1-yl)-2-methyl-5-(2-{8-oxa-3,5,10-triazatricyclo[7.4.0.0^2,7]trideca-1(9),2,4,6,10,12-hexaen-6-yl}-1,2,3,4-tetrahydroisoquinolin-6-yl)pyridin-3-yl]acetic Acid]	0.6 nM
CN(Cc1nc(Cl)c([C@H](OC(C)(C)C)C(=O)O)c(N2CCC(C)(C)CC2)c1-c1ccc2c(c1)CCN(c1ncnc3c1oc1ccccc13)C2)CC1CCOCC1 [Example 112, (S)-2-(5-(2-(Benzofuro[3,2-d]pyrimidin-4-yl)-1,2,3,4-tetrahydroisoquinolin-6-yl)-2-chloro-4-(4,4-dimethylpiperidin-1-yl)-6-((methyl((tetrahydro-2H-pyran-4-yl)methyl)amino)methyl)pyridin-3-yl)-2-(tert-butoxy)acetic Acid]	0.3 nM
COCCNc1nc(C)c([C@H](OC(C)(C)C)C(=O)O)c(N2CCC(C)(C)CC2)c1-c1ccc2c(c1)CCN(Cc1c(C)cccc1Cl)C2 [Example 2, (S)-2-(tert-Butoxy)-2-(5-(2-(2-chloro-6-methylbenzyl)-1,2,3,4-tetrahydroisoquinolin-6-yl)-4-(4,4-dimethylpiperidin-1-yl)-6-((2-methoxyethyl)amino)-2-methylpyridin-3-yl)acetic Acid]	4 nM
Cc1nc(C)c([C@H](OC(C)(C)C)C(=O)O)c(N2CCC(C)(C)CC2)c1-c1ccc2c(c1)CCN(c1ccnc(N3CCC(C(C)(C)O)CC3)n1)C2 [Example 71, (S)-2-(tert-Butoxy)-2-(4-(4,4-dimethylpiperidin-1-yl)-5-(2-(2-(4-(2-hydroxypropan-2-yl)piperidin-1-yl)pyrimidin-4-yl)-1,2,3,4-tetrahydroisoquinolin-6-yl)-2,6-dimethylpyridin-3-yl)acetic Acid]	4 nM
Cc1nc(C)c([C@H](OC(C)(C)C)C(=O)O)c(N2CCC(C)(C)CC2)c1-c1ccc2c(c1)CCN(c1ccnc(N3CCC3)n1)C2 [Example 18, (2S)-2-(5-{2-[2-(Azetidin-1-yl)pyrimidin-4-yl]-1,2,3,4-tetrahydroisoquinolin-6-yl}-4-(4,4-dimethylpiperidin-1-yl)-2,6-dimethylpyridin-3-yl)-2-(tert-butoxy)acetic Acid]	1 nM
Cc1nc(C)c([C@H](OC(C)(C)C)C(=O)O)c(N2CCC(C)(C)CC2)c1-c1ccc2c(c1)CCN(c1ccnc(N3CC4CCC(C3)O4)n1)C2 [Example 29, (2S)-2-(tert-Butoxy)-2-[4-(4,4-dimethylpiperidin-1-yl)-2,6-dimethyl-5-[2-(2-{8-oxa-3-azabicyclo[3.2.1]octan-3-yl}pyrimidin-4-yl)-1,2,3,4-tetrahydroisoquinolin-6-yl]pyridin-3-yl]acetic Acid]	4 nM
Cc1cccc(Cl)c1CN1CCc2cc(-c3c(CO)nc(Cl)c([C@H](OC(C)(C)C)C(=O)O)c3N3CCC(C)(C)CC3)ccc2C1 [Example 97, (S)-2-(tert-Butoxy)-2-(2-chloro-5-(2-(2-chloro-6-methylbenzyl)-1,2,3,4-tetrahydroisoquinolin-6-yl)-4-(4,4-dimethylpiperidin-1-yl)-6-(hydroxymethyl)pyridin-3-yl)acetic Acid]	2 nM
